How the values were obtained:
[1] = biological target: Muscarinic acetylcholine receptor (Rattus norvegicus) (UniProt P08482+P08483+P08485+P08911+P10980); assay: Ratio of QNB binding to CMD binding was evaluated; format: protein assay
[2] = biological target: Muscarinic acetylcholine receptor; assay: Muscarinic acetylcholine receptor binding assay was conducted using [3H]quinuclidinyl benzilate (QNB) to label antagonist sites in membrane preparations from rat neocortex
[3] = biological target: T1, Muscarinic acetylcholine receptor M1 (Homo sapiens, UniProt P11229); assay: biochemical; format: cell-based, CHO
T1 sequence (P11229 whole entry): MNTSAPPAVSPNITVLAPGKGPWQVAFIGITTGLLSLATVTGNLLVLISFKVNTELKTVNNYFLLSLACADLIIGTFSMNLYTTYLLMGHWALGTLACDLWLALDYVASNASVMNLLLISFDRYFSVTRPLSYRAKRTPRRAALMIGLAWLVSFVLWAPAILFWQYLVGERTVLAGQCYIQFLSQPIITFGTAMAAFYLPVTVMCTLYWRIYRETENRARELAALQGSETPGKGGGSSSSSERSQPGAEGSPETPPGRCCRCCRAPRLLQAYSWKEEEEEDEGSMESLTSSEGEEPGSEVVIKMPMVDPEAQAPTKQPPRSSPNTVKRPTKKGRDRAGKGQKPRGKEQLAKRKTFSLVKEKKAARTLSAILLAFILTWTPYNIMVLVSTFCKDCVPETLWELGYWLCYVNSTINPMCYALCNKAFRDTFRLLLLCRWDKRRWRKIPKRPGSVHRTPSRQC
Description: Binding affinity of [3H]-QNB to CHO cells expressing human Muscarinic acetylcholine receptor M1

[4] = biological target: T2, Muscarinic acetylcholine receptor M2 (Homo sapiens, UniProt P08172); assay: Binding affinity of [3H]QNB to CHO cells expressing human Muscarinic acetylcholine receptor M2; format: cell-based
T2 sequence (P08172 whole entry): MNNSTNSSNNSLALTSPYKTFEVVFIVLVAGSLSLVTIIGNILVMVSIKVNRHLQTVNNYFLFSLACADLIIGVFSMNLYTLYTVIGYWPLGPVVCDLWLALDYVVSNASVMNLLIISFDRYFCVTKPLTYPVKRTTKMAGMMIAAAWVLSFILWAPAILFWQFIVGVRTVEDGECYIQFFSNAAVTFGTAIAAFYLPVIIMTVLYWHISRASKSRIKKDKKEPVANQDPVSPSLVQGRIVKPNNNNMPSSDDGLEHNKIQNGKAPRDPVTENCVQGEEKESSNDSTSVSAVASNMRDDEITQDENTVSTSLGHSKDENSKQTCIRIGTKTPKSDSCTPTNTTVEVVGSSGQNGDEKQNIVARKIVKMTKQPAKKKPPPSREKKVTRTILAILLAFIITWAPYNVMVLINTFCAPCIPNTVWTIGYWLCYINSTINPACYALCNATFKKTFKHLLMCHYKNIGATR

[5] = biological target: Muscarinic acetylcholine receptor; assay: Muscarinic acetylcholine receptor binding assay was conducted using [3H]cis-methyldioxolane (CMD) to label agonist sites in membrane preparations from rat neocortex
[6] = biological target: T3, Muscarinic acetylcholine receptor M5 (Homo sapiens) (UniProt P08912); assay: Maximal response obtained for each drug normalized to effect of carbachol in Muscarinic acetylcholine receptor M5; format: functional
T3 sequence (whole entry): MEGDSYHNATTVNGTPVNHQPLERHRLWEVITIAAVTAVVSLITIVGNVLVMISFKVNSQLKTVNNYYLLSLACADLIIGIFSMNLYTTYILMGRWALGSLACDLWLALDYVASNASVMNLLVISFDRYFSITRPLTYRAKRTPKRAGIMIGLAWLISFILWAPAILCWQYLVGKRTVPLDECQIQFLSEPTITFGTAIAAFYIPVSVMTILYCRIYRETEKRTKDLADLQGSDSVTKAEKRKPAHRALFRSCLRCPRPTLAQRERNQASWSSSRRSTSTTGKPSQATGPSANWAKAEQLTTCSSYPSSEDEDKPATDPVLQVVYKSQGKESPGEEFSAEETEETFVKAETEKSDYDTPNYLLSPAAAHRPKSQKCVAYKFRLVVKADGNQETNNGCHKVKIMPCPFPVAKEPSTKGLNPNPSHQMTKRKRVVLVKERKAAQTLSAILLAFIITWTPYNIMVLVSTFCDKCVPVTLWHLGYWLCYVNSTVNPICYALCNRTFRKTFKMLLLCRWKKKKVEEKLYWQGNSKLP

[7] = biological target: T4, Muscarinic acetylcholine receptor M2 (Homo sapiens) (UniProt P08172); assay: Maximal response obtained for each drug normalized to effect of carbachol in Muscarinic acetylcholine receptor M2; format: functional
T4 sequence (whole entry): T2 sequence (P08172 whole entry)

[8] = biological target: T5, Muscarinic acetylcholine receptor M4 (Homo sapiens) (UniProt P08173); assay: Maximal response obtained for each drug normalized to effect of carbachol in Muscarinic acetylcholine receptor M4; format: functional
T5 sequence (whole entry): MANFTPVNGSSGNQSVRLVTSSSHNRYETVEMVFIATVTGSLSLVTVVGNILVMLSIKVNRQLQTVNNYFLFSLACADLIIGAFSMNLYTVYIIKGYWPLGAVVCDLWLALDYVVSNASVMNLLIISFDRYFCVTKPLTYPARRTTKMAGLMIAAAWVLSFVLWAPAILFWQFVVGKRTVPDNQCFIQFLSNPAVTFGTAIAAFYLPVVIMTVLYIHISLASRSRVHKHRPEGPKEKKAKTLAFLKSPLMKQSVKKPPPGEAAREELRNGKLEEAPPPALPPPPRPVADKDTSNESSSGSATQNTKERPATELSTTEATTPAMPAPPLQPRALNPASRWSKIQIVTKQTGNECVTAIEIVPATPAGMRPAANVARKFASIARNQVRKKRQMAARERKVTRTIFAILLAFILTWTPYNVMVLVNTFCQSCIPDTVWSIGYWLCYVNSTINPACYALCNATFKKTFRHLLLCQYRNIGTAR

[9] = biological target: T6, Muscarinic acetylcholine receptor M1 (Homo sapiens) (UniProt P11229); details: NIH3T3
T6 sequence (whole entry): T1 sequence (P11229 whole entry)
Description: Amplification of transfected NIH3T3 cells was measured in Muscarinic acetylcholine receptor M1 required to produce half maximal effect

[10] = biological target: T6, Muscarinic acetylcholine receptor M1 (Homo sapiens); assay: Maximal response obtained for each drug normalized to effect of carbachol in Muscarinic acetylcholine receptor M1; format: functional
[11] = biological target: Muscarinic acetylcholine receptor M3 (Homo sapiens) (UniProt P20309); details: NIH3T3
Description: Amplification of transfected NIH3T3 cells was measured in Muscarinic acetylcholine receptor M3 required to produce half maximal effect

[12] = biological target: Muscarinic acetylcholine receptor M3 (Homo sapiens) (UniProt P20309); assay: Maximal response obtained for each drug normalized to effect of carbachol in Muscarinic acetylcholine receptor M3; format: functional
[13] = biological target: T6, Muscarinic acetylcholine receptor M1 (Homo sapiens); details: CHO
[14] = biological target: T3, Muscarinic acetylcholine receptor M5 (Homo sapiens); assay: Stimulations of inositol phosphate(PI) accumulation in transfected CHO cells in Muscarinic acetylcholine receptor M5 values are the maximal response obtained from the compound tested at 100 uM normalized to the effect of carbachol.; format: functional, cell-based
[15] = biological target: Muscarinic acetylcholine receptor M3 (Homo sapiens) (UniProt P20309); assay: Stimulations of inositol phosphate(PI) accumulation in transfected CHO cells in Muscarinic acetylcholine receptor M3 values are the maximal response obtained from the compound tested at 100 uM normalized to the effect of carbachol.; format: functional, cell-based
[16] = biological target: T4, Muscarinic acetylcholine receptor M2 (Homo sapiens); assay: Amplification of transfected NIH3T3 cells was measured in Muscarinic acetylcholine receptor M2 required to produce half maximal effect; format: functional, cell-based
[17] = biological target: T3, Muscarinic acetylcholine receptor M5 (Homo sapiens); assay: Amplification of transfected NIH3T3 cells was measured in Muscarinic acetylcholine receptor M5 required to produce half maximal effect; format: functional, cell-based
[18] = biological target: Muscarinic acetylcholine receptor M3 (Homo sapiens) (UniProt P20309); assay: Inositol phosphate(PI) accumulation in CHO cells expressing Muscarinic acetylcholine receptor M3 as maximal response at 100 uM relative to carbachol; format: functional, cell-based
[19] = biological target: T3, Muscarinic acetylcholine receptor M5 (Homo sapiens); assay: Inositol phosphate(PI) accumulation in CHO cells expressing Muscarinic acetylcholine receptor M5 as maximal response at 100 uM relative to carbachol; format: functional, cell-based
[20] = biological target: T6, Muscarinic acetylcholine receptor M1 (Homo sapiens); assay: Stimulation of inositol phosphate(PI) accumulation in CHO cells expressing Muscarinic acetylcholine receptor M1 as maximal response at 100 uM relative to carbachol; format: functional, cell-based

Sequence of Muscarinic acetylcholine receptor M3 (Homo sapiens) (P20309 whole entry, looked up): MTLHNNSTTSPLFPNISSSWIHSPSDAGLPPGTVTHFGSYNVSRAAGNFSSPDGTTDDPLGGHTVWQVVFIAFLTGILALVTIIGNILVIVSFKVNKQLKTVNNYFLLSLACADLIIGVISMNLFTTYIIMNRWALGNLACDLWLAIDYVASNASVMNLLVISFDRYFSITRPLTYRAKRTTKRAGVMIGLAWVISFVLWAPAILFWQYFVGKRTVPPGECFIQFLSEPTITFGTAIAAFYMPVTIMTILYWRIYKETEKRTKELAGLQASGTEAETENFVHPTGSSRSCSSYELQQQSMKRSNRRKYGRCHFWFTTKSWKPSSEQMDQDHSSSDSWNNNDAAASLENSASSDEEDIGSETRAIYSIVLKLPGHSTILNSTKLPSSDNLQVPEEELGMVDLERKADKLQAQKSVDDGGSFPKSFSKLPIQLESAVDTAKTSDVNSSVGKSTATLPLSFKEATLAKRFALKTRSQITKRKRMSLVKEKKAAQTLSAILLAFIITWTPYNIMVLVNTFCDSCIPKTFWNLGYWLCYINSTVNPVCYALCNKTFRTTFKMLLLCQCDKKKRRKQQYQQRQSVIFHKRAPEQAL

SMILES	Ratio [1]	IC50 [2]	IC50 [3]	IC50 [4]	IC50 [5]	CCh [19]	CCh [20]	further results
C#C/C(C)=C/CO/N=C1\CN2CCC1C2 (configuration not stated)	480	2060 nM	2.59 µM	6.01 µM	4.29 nM	–	–	–
COc1cccc(C#CCO/N=C2\CN3CC[C@H]2C3)c1	–	–	–	–	–	–	–	CCh [6]: 60%; CCh [7]: 33%; CCh [8]: 65%; ED50 [9]: 1.6 µM; CCh [10]: 51%; ED50 [11]: 4.57 µM; CCh [12]: 57%; ED50 [13]: 3.7 µM; Stimulation [14]: 1.9%; Stimulation [15]: 5.2%; ED50 [16]: 1.53 µM; ED50 [17]: 2.59 µM
C=CCO/N=C1\CN2CCC1C2 (configuration not stated)	91.7	4770 nM	4.05 µM	10.8 µM	52 nM	–	–	–
Clc1ccccc1C#CCO/N=C1\CN2CCC1C2 (configuration not stated)	107	–	1.12 µM	4.01 µM	–	4%	32%	CCh [18]: 6%
COc1ccccc1C#CCO/N=C1\CN2CCC1C2 (configuration not stated)	80.7	–	16.6 µM	69.3 µM	–	–	–	–
C#CCO/N=C1\CN2CCC1C2 (configuration not stated)	1240	4350 nM	4.89 µM	6.03 µM	3.5 nM	42%	95%	–
C#CCC#CCC#CCO/N=C1\CN2CCC1C2 (configuration not stated)	119	958 nM	–	–	8.04 nM	–	–	–
Cc1ccc(C#CCO/N=C2\CN3CCC2C3)cc1 (configuration not stated)	124	–	14.1 µM	38.6 µM	–	–	–	–
Clc1ccc(C#CCO/N=C2\CN3CCC2C3)cc1 (configuration not stated)	119	–	4.01 µM	24.7 µM	–	0%	48%	–
Fc1ccccc1C#CCO/N=C1\CN2CCC1C2 (configuration not stated)	160	–	4.03 µM	20.8 µM	–	6%	45%	CCh [18]: 2%
C#C/C(C)=C\CO/N=C1\CN2CCC1C2 (configuration not stated)	790	806 nM	1.58 µM	1.9 µM	1.02 nM	–	–	–
C/C(C#Cc1ccccc1)=C\CO/N=C1\CN2CCC1C2 (configuration not stated)	7.93	–	1.09 µM	7.93 µM	–	–	–	–
Fc1ccc(C#CCO/N=C2\CN3CCC2C3)cc1 (configuration not stated)	204	–	5.46 µM	27.2 µM	–	13%	57%	CCh [18]: 10%
C#CCC#CCO/N=C1\CN2CCC1C2 (configuration not stated)	402	8834 nM	8.83 µM	8.07 µM	22 nM	–	–	–
O=[N+]([O-])c1cccc(C#CCO/N=C2\CN3CCC2C3)c1 (configuration not stated)	227	–	15.1 µM	46.6 µM	–	–	–	–
Fc1cccc(C#CCO/N=C2\CN3CCC2C3)c1 (configuration not stated)	132	–	9.85 µM	47.9 µM	–	9%	54%	CCh [18]: 12%
C(#Cc1cccs1)CO/N=C1\CN2CCC1C2 (configuration not stated)	173	2330 nM	1.62 µM	8.9 µM	13.5 nM	–	86%	–
C#C/C=C/CO/N=C1\CN2CCC1C2 (configuration not stated)	398	13800 nM	0.216 µM	0.519 µM	34.7 nM	–	–	–
C(#Cc1ccsc1)CO/N=C1\CN2CCC1C2 (configuration not stated)	163	2690 nM	4.84 µM	15.2 µM	16.5 nM	13%	54%	CCh [18]: 19%
CO/N=C1\CN2CCC1C2 (configuration not stated)	1340	24200 nM	26.9 µM	16.8 µM	18.1 nM	–	–	–

Source: ChEMBL document CHEMBL1131286, “Design and synthesis of m1-selective muscarinic agonists: (R)-(-)-(Z)-1-Azabicyclo[2.2.1]heptan-3-one, O-(3-(3'-methoxyphenyl)-2-propynyl)oxime maleate (CI-1017), a functionally m1-selective muscarinic agonist” (J Med Chem, 1998)
